Measured values published in ChEMBL document CHEMBL2413072, “Synthesis and in vitro anticancer studies of novel C-2 arylidene congeners of lantadenes” (2013).

Assays:
Format in all cases: functional
BT-549 = assay: Growth inhibition of human BT549 cells assessed as growth inhibition at 10 uM by sulforhodamine B assay; settings: read-out: GI
MCF7 = assay: Growth inhibition of human MCF7 cells assessed as growth inhibition at 10 uM by sulforhodamine B assay; settings: read-out: GI
PC-3 = assay: Growth inhibition of human PC3 cells assessed as growth inhibition at 10 uM by sulforhodamine B assay; settings: read-out: GI
OVCAR-8 [1] = assay: Growth inhibition of human OVCAR8 cells assessed as growth inhibition at 10 uM by sulforhodamine B assay; settings: read-out: GI
IGROV-1 = assay: Growth inhibition of human IGROV1 cells assessed as growth inhibition at 10 uM by sulforhodamine B assay; settings: read-out: GI
UACC-62 = assay: Growth inhibition of human UACC62 cells assessed as growth inhibition at 10 uM by sulforhodamine B assay; settings: read-out: GI
UACC-257 = assay: Growth inhibition of human UACC257 cells assessed as growth inhibition at 10 uM by sulforhodamine B assay; settings: read-out: GI
HT-29 [2] = assay: Growth inhibition of human HT-29 cells assessed as growth inhibition at 10 uM by sulforhodamine B assay; settings: read-out: GI
[3] = Growth inhibition of human HCC2998 cells assessed as growth inhibition at 10 uM by sulforhodamine B assay; settings: HCC 2998, read-out: GI
NCI-H23 = assay: Growth inhibition of human NCI-H23 cells assessed as growth inhibition at 10 uM by sulforhodamine B assay; settings: read-out: GI
NCI-H226 = assay: Growth inhibition of human NCI-H226 cells assessed as growth inhibition at 10 uM by sulforhodamine B assay; settings: read-out: GI
HOP-92 = assay: Growth inhibition of human HOP92 cells assessed as growth inhibition at 10 uM by sulforhodamine B assay; settings: read-out: GI
[4] = Growth inhibition of human EKVX cells assessed as growth inhibition at 10 uM by sulforhodamine B assay; settings: read-out: GI
K562 = assay: Growth inhibition of human K562 cells assessed as growth inhibition at 10 uM by sulforhodamine B assay; settings: read-out: GI
786-0 = assay: Growth inhibition of human 786-0 cells assessed as cell growth at 10 uM by sulforhodamine B assay; settings: read-out: Activity
OVCAR-8 [5] = assay: Growth inhibition of human OVCAR8 cells assessed as cell growth at 10 uM by sulforhodamine B assay; settings: read-out: Activity
OVCAR-4 = assay: Growth inhibition of human OVCAR4 cells assessed as cell growth at 10 uM by sulforhodamine B assay; settings: read-out: Activity
OVCAR-3 = assay: Growth inhibition of human OVCAR3 cells assessed as cell growth at 10 uM by sulforhodamine B assay; settings: read-out: Activity
SNB-19 = assay: Growth inhibition of human SNB19 cells assessed as cell growth at 10 uM by sulforhodamine B assay; settings: read-out: Activity
KM12 = assay: Growth inhibition of human KM12 cells assessed as cell growth at 10 uM by sulforhodamine B assay; settings: read-out: Activity
HT-29 [6] = assay: Growth inhibition of human HT-29 cells assessed as cell growth at 10 uM by sulforhodamine B assay; settings: read-out: Activity
SR = assay: Growth inhibition of human SR cells assessed as cell growth at 10 uM by sulforhodamine B assay; settings: read-out: Activity

SMILES | inhibition of growth at 10 µM (BT-549) | inhibition of growth at 10 µM (MCF7) | inhibition of growth at 10 µM (PC-3) | inhibition of growth at 10 µM (OVCAR-8 [1]) | inhibition of growth at 10 µM (IGROV-1) | inhibition of growth at 10 µM (UACC-62) | inhibition of growth at 10 µM (UACC-257) | inhibition of growth at 10 µM (HT-29 [2]) | inhibition of growth at 10 µM [3] | inhibition of growth at 10 µM (NCI-H23) | inhibition of growth at 10 µM (NCI-H226) | inhibition of growth at 10 µM (HOP-92) | inhibition of growth at 10 µM [4] | inhibition of growth at 10 µM (K562) | growth at 10 µM (786-0) | growth at 10 µM (OVCAR-8 [5]) | growth at 10 µM (OVCAR-4) | growth at 10 µM (OVCAR-3) | growth at 10 µM (SNB-19) | growth at 10 µM (KM12) | further results
COc1cc(/C=C2\C[C@]3(C)[C@H]4CC=C5[C@@H]6CC(C)(C)C[C@@H](O)[C@]6(C(=O)O)CC[C@@]5(C)[C@]4(C)CC[C@H]3C(C)(C)C2=O)ccc1O | < 10% | 22.5% | 27.8% | 20.2% | < 10% | 25% | < 10% | 14.5% | < 10% | 15% | < 10% | 29.1% | 11.5% | 28.8% | 102% | 79.8% | 83.8% | 106% | 97% | 84% | growth at 10 µM (HT-29 [6]): 85.5%; growth at 10 µM (SR): 87.1%
CC1(C)C[C@@H](O)[C@]2(C(=O)O)CC[C@]3(C)C(=CC[C@@H]4[C@@]5(C)CCC(=O)C(C)(C)[C@@H]5CC[C@]43C)[C@@H]2C1 | 10.1% | 18.6% | 40.7% | 19.2% | < 10% | 19.5% | < 10% | 16.8% | < 10% | < 10% | < 10% | 24.6% | < 10% | 23.2% | 86.2% | 80.8% | 85.9% | 104% | 94.2% | 87.7% | growth at 10 µM (HT-29 [6]): 83.2%; growth at 10 µM (SR): 83.7%
